{
  "source": "patent US11773146B2",
  "about": "“Disruption of the WAVE3 protein complex for suppression of invasion and metastasis” (UNIVERSITY OF GEORGIA RESEARCH FOUNDATION, INC., priority 2015, dated 2023)",
  "key": {"MDA-MB-231 cells [1]": {"test_system": "MDA-MB-231 cells", "assay": "Transwell invasion assay (WANT peptides)", "format": "cell-based", "excerpt": "There are currently no small molecules that target WASF3 function directly, but targeting the WRC may provide a means of suppressing invasion."}, "[2]": {"test_system": "MDA-MB-231 and Hs578T cells", "assay": "Cell proliferation, viability and toxicity with WANT3", "format": "cell-based", "excerpt": "(§1) MDA-MB-231, Hs578T and T47D breast cancer cell lines were obtained directly from American Type Culture Collection (Rockville, Md.). MDA-MB-231 and T47D and have been verified using SNP-CGH (Teng Y, et al. Int J Cancer 2011 129:2825-2835) for characteristic cytogenetic changes. The ATCC Cell Authentication Testing service confirmed the identity of Hs578T using STR DNA fingerprinting analysis. Standard cell culture, transient transfections, RT-PCR, western blotting, immunoprecipitation (IP), flow cytometry, Biotin-Avidin pulldown, lentiviral transduction, cell proliferation and Transwell invasion assays were carried out as described previously (Teng Y, et al. Int J Cancer 2011 129:2825-2835; Teng Y, et al. J Biol Chem 2012 287:10051-10059; Teng Y, et al. Carcinogenesis 2013 34:1994-1999)."}, "WASF3": {"test_system": "WASF3", "assay": "Western blot of WASF3 stability after WANT3", "format": "cell-based", "excerpt": "as §1"}, "NCKAP1": {"test_system": "NCKAP1", "assay": "Western blot of NCKAP1 protein after WANT3", "format": "cell-based", "conditions": "10 μM", "excerpt": "as §1"}, "[3]": {"biological_target": "T1, WASF3 complex (Homo sapiens)", "T1 construct": "endogenous in cells; host or cells: MDA-MB-231", "T1 sequence (Q7L576 whole entry, one chain of several)": "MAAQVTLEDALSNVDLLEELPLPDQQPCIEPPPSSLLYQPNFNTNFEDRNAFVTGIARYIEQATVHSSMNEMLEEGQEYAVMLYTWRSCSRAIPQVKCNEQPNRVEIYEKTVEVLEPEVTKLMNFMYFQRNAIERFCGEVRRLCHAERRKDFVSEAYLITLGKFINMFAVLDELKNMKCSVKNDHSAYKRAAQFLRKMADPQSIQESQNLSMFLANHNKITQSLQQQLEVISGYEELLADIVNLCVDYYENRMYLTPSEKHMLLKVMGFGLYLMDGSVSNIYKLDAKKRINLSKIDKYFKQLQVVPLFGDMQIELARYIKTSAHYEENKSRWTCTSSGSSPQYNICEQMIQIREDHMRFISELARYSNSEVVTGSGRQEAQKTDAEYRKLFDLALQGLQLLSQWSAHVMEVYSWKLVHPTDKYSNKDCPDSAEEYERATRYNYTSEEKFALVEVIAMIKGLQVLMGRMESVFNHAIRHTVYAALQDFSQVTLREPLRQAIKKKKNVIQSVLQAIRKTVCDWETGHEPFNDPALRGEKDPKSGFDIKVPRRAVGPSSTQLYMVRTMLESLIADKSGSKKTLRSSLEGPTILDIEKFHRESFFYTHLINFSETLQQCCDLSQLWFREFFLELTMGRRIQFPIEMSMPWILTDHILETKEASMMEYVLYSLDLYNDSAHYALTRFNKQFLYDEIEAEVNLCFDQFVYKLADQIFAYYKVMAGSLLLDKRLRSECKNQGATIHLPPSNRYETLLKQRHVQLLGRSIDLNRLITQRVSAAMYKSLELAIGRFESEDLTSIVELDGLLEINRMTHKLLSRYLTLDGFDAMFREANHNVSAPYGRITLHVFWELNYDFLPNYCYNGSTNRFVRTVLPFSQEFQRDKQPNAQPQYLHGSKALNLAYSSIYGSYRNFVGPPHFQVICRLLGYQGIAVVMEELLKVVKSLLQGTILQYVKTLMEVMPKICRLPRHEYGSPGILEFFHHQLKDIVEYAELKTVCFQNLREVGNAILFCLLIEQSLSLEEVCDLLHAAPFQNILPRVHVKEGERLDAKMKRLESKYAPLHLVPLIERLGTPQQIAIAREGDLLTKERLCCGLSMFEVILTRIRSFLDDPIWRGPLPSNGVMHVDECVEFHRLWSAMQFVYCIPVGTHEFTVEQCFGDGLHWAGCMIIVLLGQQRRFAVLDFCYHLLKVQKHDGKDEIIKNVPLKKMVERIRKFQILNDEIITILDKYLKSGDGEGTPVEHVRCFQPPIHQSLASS", "assay": "IP of WASF3 complex after WANT3 or WAHM1 (phosphoactivation, RAC1 engagement)", "format": "cell-based", "conditions": "MDA-MB-231 cells", "excerpt": "as §1"}, "MDA-MB-231 cells [4]": {"test_system": "MDA-MB-231 cells", "conditions": "37° C., after 7 days", "experimental": "To evaluate the stability of these SPs, WANT3 was incubated in serum containing medium for varying lengths of time (1-7 days) at 37° C. and then this medium was added to MDA-MB-231 cells to evaluate the ability of the preincubated peptides to suppress invasion."}, "[5]": {"conditions": "concentration range of 2.5-20 μM"}},
  "note": "Entries after “also recorded” stand apart in the source; their conditions may differ. Bridges are numbered along the chain shown (N, C = ends). Where no end group is shown, it is not given here. [ ]: non-standard residue; d: D form. S5 = C=CCCC[C@](C)(N)C(=O)O",
  "data": [
    {"sequence": "VLXRNAXHAVYK (VL[S5]RNA[S5]HAVYK-NH2; staple 3-7; not fully specified (N-terminus); also: FITC label (in alias), site not given here) [WANT3]", "values": [
      {"measurement": "suppression of invasion, WAHM1 compared with WANT3", "setting": "MDA-MB-231 cells [1]", "result": "comparable suppression of invasion"},
      {"measurement": "invasion potential", "setting": "MDA-MB-231 cells [1]; final concentration of 10 μM", "result": "highly significant suppression of invasion; also recorded: significantly suppresses"},
      {"measurement": "invasion at increased concentration", "setting": "MDA-MB-231 cells [1]; high dose 20 μM compared with low dose", "result": "greater suppression of invasion; also recorded: more remarkable reduction"},
      {"measurement": "cell proliferation", "setting": "[2]; 10 μM", "result": "without affecting cell proliferation"},
      {"measurement": "in vitro cell toxicity", "setting": "[2]; 10 μM", "result": "minimal"},
      {"measurement": "cell proliferation rate", "setting": "[2]; [5]", "result": "does not affect"},
      {"measurement": "viability", "setting": "[2]; [5]", "result": "does not affect"},
      {"measurement": "concentration achieving maximal effect on WASF3 stability", "setting": "WASF3", "result": 20, "unit": "µM"},
      {"measurement": "WASF3 stability / protein levels", "setting": "WASF3; 10 μM, compared with scrambled peptide", "result": "significant destabilization of WASF3; also recorded: suppresses both WASF3 and NCKAP1 protein levels"},
      {"measurement": "destabilization of WASF3, WANT3 compared with WHAM1", "setting": "WASF3; MDA-MB-231 cells", "result": "more efficient in destabilizing WASF3"},
      {"measurement": "dose dependence of WASF3 destabilization", "setting": "WASF3; MDA-MB-231 cells", "result": "suppresses WASF3 protein levels in a dose-dependent manner; also recorded: dose-dependent destabilization of the WASF3 protein"},
      {"measurement": "NCKAP1 protein levels", "setting": "NCKAP1", "result": "loss of the NCKAP1 protein; also recorded: suppresses both WASF3 and NCKAP1 protein levels"},
      {"measurement": "engagement of RAC1 with the WASF3 complex, WANT3 compared with WHAM1", "setting": "[3]", "result": "more significant"},
      {"measurement": "phosphoactivation of WASF3, WANT3 compared with WAHM1", "setting": "[3]", "result": "more significantly"},
      {"measurement": "suppression of invasion after preincubation in serum-containing medium", "setting": "MDA-MB-231 cells [4]", "result": "residual effect on suppression of invasion"}
    ]}
  ]
}
